Measured values from patent publication US20020123056A1 (priority 2000, published 2002).

How the values were obtained:
[1] = system: SGK2; assay type: biochemical, human
[2] = molecular target: T1, SGK2 (Homo sapiens, UniProt Q9HBY8); assay type: biochemical
T1 sequence (Q9HBY8 whole entry, looked up): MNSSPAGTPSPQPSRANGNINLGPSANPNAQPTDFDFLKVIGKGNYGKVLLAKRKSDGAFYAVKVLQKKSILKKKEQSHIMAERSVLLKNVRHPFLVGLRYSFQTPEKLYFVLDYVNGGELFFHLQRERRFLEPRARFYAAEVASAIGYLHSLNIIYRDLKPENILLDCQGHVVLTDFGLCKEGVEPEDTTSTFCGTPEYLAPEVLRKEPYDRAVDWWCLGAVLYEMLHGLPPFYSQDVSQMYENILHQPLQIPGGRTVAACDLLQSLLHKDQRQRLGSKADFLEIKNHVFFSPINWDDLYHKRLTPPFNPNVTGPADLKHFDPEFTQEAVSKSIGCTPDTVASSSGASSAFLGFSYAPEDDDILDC

| Compound | effect on SGK2 kinase activity [1] | incorporation of 32P into peptide substrate [2] |
| --- | --- | --- |
| COC[C@@H]([C@H](O)[C@H](O)C(=O)NCC[C@H](C)c1nc(/C=C/C[C@@H]2O[C@]3(C[C@@H](O)[C@@H]2C)O[C@H]([C@H](C[C@H](O)[C@H](C)[C@H](O)[C@H](C)/C=C(C)/C(C)=C/C=C/C(C)=C\C#N)OC)[C@H](OP(=O)(O)O)C3(C)C)co1)N(C)C [Calyculin A] | stimulated SGK2 kinase activity |  |
| CKRPRAASFAE [PKB-sub] |  | significant incorporation |
| KTFCGTPEYLAPEVRREPRILSEEEQEMFRDFDYI [PDK1 peptide] |  | no significant incorporation |
| C=C1[C@@H](O)[C@@H]2O[C@]3(CC[C@H](/C=C/[C@@H](C)[C@@H]4CC(C)=C[C@@]5(O[C@H](C[C@@](C)(O)C(=O)O)CC[C@H]5O)O4)O3)CC[C@H]2O[C@@H]1[C@@H](O)C[C@H](C)[C@H]1O[C@@]2(CCCCO2)CC[C@H]1C [Okadaic Acid] | stimulated SGK2 kinase activity |  |
